From patent US20190209548A1, “LINKED DIARYL COMPOUNDS WITH ANTICANCER PROPERTIES AND METHODS OF USING THE SAME” (University of Maryland, College Park, priority 2014, published 2019)

Assays:
[1] = tested on: c-MYC protein in MDA-MB-231 cells; assay: Western Blot of c-MYC protein expression; format: cell-based, human; conditions: 5.45 or 27.25 μM, 2, 6 or 24 hours
Experimental: FIG. 7. Western Blot analysis of c-MYC protein expression in MDA-MB-231 after treated with TMPyP4 and DMZ9. A, MDA-MB-231 cells were treated with DMSO vehicle, DMZ9 (5.45 […] and 27.25 μM), TMPyP4 (22.3 μM and 111.5 μM) for 2 h, 6 h and 24 h. Total protein was extracted and analyzed by Western Blot with 1:1,000 C-MYC (Cell Signaling) and 1:10,000 HRP-linked anti-rabbit IgG (Cell Signaling). * Observed high level of cytotoxicity and low protein levels. B and C, the graphs show the relative density as compared with the DMSO vehicle. Scanned images were analyzed using image J software.
Western Blot Analysis of c-MYC Protein Expression. C-MYC protein levels in MDA-MB-231 cells were evaluated by performing Western Blot. MDA-MB-231 breast cancer cells were treated with 22.3 or 111.5 μM TMPyP4 and 5.45 or 27.25 μM DMZ9 for 2, 6 or 24 hours.

8 bp AT = assay: CD titration with AT-rich duplex DNA; format: binding; conditions: ligand 40 μM, 8 bp AT 0-50 μM
Experimental: CD experiments for binding of ligands with duplex DNA (AT-rich). CD titration experiments, monitoring in the wavelength region corresponding to the bound ligand, were performed with different concentrations of 8 bp AT (0-50 μM) added to a fixed concentration of either DMZ or Triazene-1 (40 μM).

[2] = tested on: G-quadruplex DNAs (c-kit1, VEGF, bcl-2 2345 and TBA); assay: UV-visible titration with G-quadruplex DNA; format: binding; conditions: ligand 10 μM, DNA 0-150 μM, 250 mM KCl, Tris-HCl pH 7.5
Experimental: (§1) UV titration studies of DNA with the triazene ligands, DMZ and Triazene-1. The molar extinction coefficients at 260 nm for 22-mer c-kit1, 18-mer VEGF, 23-mer bcl-2 2345, 15-mer TBA and 20-mer 8 bp AT are as follows 226,700 M^−1 cm^−1, 169,800 M^−1 cm^−1, 227,300 M^−1 cm^−1, 143,300 M^−1 cm^1 and 205,500 M^−1 cm^−1, respectively. The concentration of ligands used in this study was 10 μM and the DNA concentrations were 0, 0.25, 1.5, 3, 5, 6, 7, 8, 9, 10, 20, 30, 40, 50, 100, and 15 μM. The buffer contained 250 mM KCl, 50 mM Tris-HCl (at pH 7.5). The following quadruplex DNA were tested: c-kit1, VEGF, bcl-2 2345, and TBA. Duplex DNA (8 bp AT) was also tested. The sample was first heated up to 95° C. for 5 min without the ligand and then cooled down to room temperature in 15 min. The ligand was then added and the mixture was incubated at 4° C. for ˜12 h before recording the data. In case of Triazene-1 and Triazene-2, the sample mixture contained 1% DMSO.

8 bp AT duplex DNA = assay: UV-visible titration with duplex DNA; format: binding; conditions: ligand 10 μM
Experimental: as §1

G-quadruplexes = assay: Binding to G-quadruplexes, general statements; conditions: all of the tested G-quadruplexes, ITC, compare Tables 2 and 3
hTel22 = assay: ESI mass spectrometry of hTel22 with excess ligand; format: binding, human; conditions: free DNA present even in excess ligand
Experimental: Electrospray Ionization Mass Spectrometry. ESI-MS experiments were carried out on a Bruker MicrOTOFQ mass spectrometer. Data acquisition was set to operate in negative ion mode. All experiments were performed in 50 mM ammonium acetate buffer containing 20% HPLC grade methanol and adjusted with 1 N KOH solution to reach pH of 7.0. The WT hTel 22-mer G-quadruplex sample was prepared at a concentration of approximately 10 μM in the ammonium acetate buffer and was exhaustedly dialyzed. Stock solutions of DMZ and Triazene-1 were prepared in the final dialysate buffer at concentration as high as 300 μM. The ESI-MS samples were prepared by mixing the DNA and ligand stock solutions to yield a mixture containing excess of each ligand per equivalence of DNA. The MS capillary voltage was set to +3500 V, dry N2 gas flow was adjusted to 0.5 L/min at 110° C., and the G-quadruplex/ligand samples were directly infused into the MS by using a kD Scientific syringe pump set to a flow rate of 200 μL/hour. Data processing was performed by using Bruker Daltonics Data Analysis program.

24mer WT c-myc = assay: CD titration with c-myc G-quadruplex; format: binding; conditions: K+ Tris buffer
Experimental: (§2) Circular Dichroism (CD). CD titration experiments were performed with an Olis DSM-20 spectropolarimeter (Bogart, Ga.). All measurements were done at 25° C. using a 1 cm quartz cuvette and covering a spectral range of 220-420 nm. […] Stock solutions of the ligand were added in small amount to reach a molar ratio of 1:1, 3:1, 6:1, and 10:1 of ligand per equivalence of DNA.

[3] = tested on: B-DNAs containing the AT rich sequence; conditions: measured by NMR, Jenkins et al.; cited from earlier work
27mer WT bcl-2 = assay: CD titration with bcl-2 G-quadruplex; format: binding; conditions: K+ Tris buffer
Experimental: as §2

c-kit1 = assay: NMM displacement assay; format: binding; conditions: NMM 1 μM, ligand 0-200 μM
Experimental: Displacement assays with the G-quadruplex binder, NMM. In these assays, the triazene ligand was used at various concentrations: 0, 5, 10, 20, 50, 100, and 200 μM; and the DNA concentration was kept at 1 μM, whereas the concentration of NMM was 1 μM. The experiments were performed in 50 mM Tris-HCl buffer (pH 7.5) in the presence of 50 mM KCl. The excitation wavelength used for NMM was 400 nm and the emission was monitored between 550 and 700 nm (slit width=5 nm, scan speed=600 nm/min, averaging time=0.1 sec, data interval=1 nm, PMT detector voltage=600 V, measurement temperature=20° C.). The sample was initially heated to 95° C. and kept at this temperature for 5 min without ligand or NMM and then cooled down to room temperature for 15 min. Subsequently, the triazene ligand was added to the DNA and incubated for ˜12 h.

Row | Compound | c-MYC protein expression [1] | induced CD of ligand (8 bp AT) | shift of absorption spectrum upon DNA titration [2] | shift of absorption spectrum upon DNA titration (8 bp AT duplex DNA) | binding less than DMZ (G-quadruplexes) | binding affinity in words (hTel22) | CD signal of G-quadruplex upon complexation (24mer WT c-myc) | Kavg, binding affinity [3] | CD signal of G-quadruplex upon complexation (27mer WT bcl-2) | competition with NMM for c-kit1 binding (c-kit1)
1 | N=C(N)c1ccc(N=NNc2cccc(C#Cc3ccc(F)cc3)c2)cc1 [DMZ9] | caused a decrease in the c-MYC protein expression | – | – | – | – | – | – | – | – | –
2 | N=C(N)c1ccc(NN=Nc2ccccc2)cc1 [DMZ1] | – | No induced CD | red shift | no such shift was observed | 4-5 orders of magnitude | low binding affinity | – | – | – | –
3 | N=C(N)c1ccc(/N=N/Nc2ccc(C(=N)N)cc2)cc1 [DMZ, Diminazene aceturate, reference compound] | – | large positive induced CD | remarkable bathochromic shift (red shift) and a hypochromic effect | – | – | – | dramatically decreased | ≈ 1×10^6 M^−1 | dramatically decreased | could indeed compete with NMM for c-kit1 binding
